Test results published in publication PMC5543143, “Structural Basis for the Mechanism of ATP-Dependent Acetone Carboxylation” (Scientific Reports, 2017).
Read-outs that look alike come from different tables or passages of the source.

Assays:
[1] = target: T1, native acetone carboxylase (AC) from X. autotrophicus 7C (Xanthobacter versatilis, UniProt Q8RM03+Q8RM04); test: X-ray crystal structure; format: binding; design: gene acxA; native purification from acetone-grown cells, untagged; (alpha beta gamma)2 heterohexamer, 360 kDa; with Acetone carboxylase gamma subunit; conditions: co-crystallised with 10 mM ATP and 10 mM acetone; AMP bound at beta subunit; acetate at Mn site; pH 7.5
[2] = target: T2, acetone carboxylase (AC, XaAC), recombinant (Xanthobacter versatilis, UniProt Q8RM03+Q8RM04); conditions: turnover only
T2 construct: gene acxA

[3] = target: T1, native acetone carboxylase (AC) from X. autotrophicus 7C; design: gene acxA; conditions: with acetone and HCO3-; turnover only
[4] = target: the molecule itself; test: crystal structure; recombinant AC (αβγ)2, ligand-free and AMP-bound; hanging drop, 25 °C, 14-18% PEG 3350, 0.2 M MgSO4, pH 6.3; nucleotide additives 5 mM; SAD with selenium

T1 sequence (Q8RM04 whole entry, one chain of several): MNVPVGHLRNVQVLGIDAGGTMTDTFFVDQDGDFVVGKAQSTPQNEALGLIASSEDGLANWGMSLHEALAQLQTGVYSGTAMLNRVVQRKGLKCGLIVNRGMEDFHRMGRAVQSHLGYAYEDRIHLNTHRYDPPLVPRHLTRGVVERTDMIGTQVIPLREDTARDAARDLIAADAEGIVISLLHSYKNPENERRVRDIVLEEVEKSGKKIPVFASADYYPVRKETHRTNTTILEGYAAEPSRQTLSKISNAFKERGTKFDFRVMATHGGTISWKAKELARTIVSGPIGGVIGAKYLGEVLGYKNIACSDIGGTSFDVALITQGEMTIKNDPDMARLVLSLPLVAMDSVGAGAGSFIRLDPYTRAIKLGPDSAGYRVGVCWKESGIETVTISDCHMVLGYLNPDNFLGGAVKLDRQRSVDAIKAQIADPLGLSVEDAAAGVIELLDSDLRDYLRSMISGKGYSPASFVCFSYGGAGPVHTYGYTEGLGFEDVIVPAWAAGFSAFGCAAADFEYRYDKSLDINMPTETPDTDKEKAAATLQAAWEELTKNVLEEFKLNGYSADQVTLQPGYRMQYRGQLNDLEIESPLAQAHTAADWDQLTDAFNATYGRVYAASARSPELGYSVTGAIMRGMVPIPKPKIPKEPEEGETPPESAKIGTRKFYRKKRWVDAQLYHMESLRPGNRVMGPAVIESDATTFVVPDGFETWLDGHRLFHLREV
T1 sequence (Q8RM02 2-168, one chain of several, further chain): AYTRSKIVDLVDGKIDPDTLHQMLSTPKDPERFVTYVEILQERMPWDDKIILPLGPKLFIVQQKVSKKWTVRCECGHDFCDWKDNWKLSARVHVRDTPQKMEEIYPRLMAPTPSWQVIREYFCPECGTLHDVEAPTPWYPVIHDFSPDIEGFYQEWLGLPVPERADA
T2 sequence (Q8RM04 whole entry, one chain of several): as the sequence (Q8RM04 whole entry, one chain of several) above
T2 sequence (Q8RM02 2-168, one chain of several, further chain): as the sequence (Q8RM02 2-168, one chain of several, further chain) above

For Nc1ncnc2c1ncn2[C@@H]1O[C@H](COP(=O)(O)O)[C@@H](O)[C@H]1O [AMP], the X-ray crystal structure [1] was “with AMP bound and no acetone visible in the density”.

For Nc1ncnc2c1ncn2[C@@H]1O[C@H](COP(=O)(O)OP(=O)(O)OP(=O)(O)O)[C@@H](O)[C@H]1O [ATP], the “coupled spectrophotometric assay with 3-hydroxybutyrate dehydrogenase” value ([2]; with acetone and HCO3-) was “actively catalyzed the ATP- and HCO3 ^− -dependent carboxylation of acetone to acetoacetate” and the acetone carboxylation activity [3] was “actively catalyzed the ATP- and HCO3 ^− -dependent carboxylation of acetone to acetoacetate”.

In the case of CC(C)=O [acetone], the “coupled spectrophotometric assay with 3-hydroxybutyrate dehydrogenase” value ([2]; ATP and HCO3- dependent carboxylation to acetoacetate) is reported as “actively catalyzed the ATP- and HCO3 ^− -dependent carboxylation of acetone to acetoacetate”.

B1: acetone carboxylase α subunit (AcxB) from Xanthobacter autotrophicus Py2, recombinant (natural protein, UniProt Q8RM03 1-776, looked up)
chain: MNVTVDQSTLAGATRGIVRGGETLKEHRDRLMAATKATGRYAGLKTLELREREPILYNKLFSRLRAGVVDARETAKKIAASPIVEQEGELCFTLYNAAGDSLLTSTGIIIHVGTMGAAIKYMIENNWEANPGVHDKDIFCNNDSLIGNVHPCDIHTIVPIFWEGELIGWVGGVTHVIDTGAVGPGSMATGQVQRFGDGYSITCRKVGANDTLFRDWLHESQRMVRTTRYWMLDERTRIAGCHMIRKLVEEVVAEEGIEAYWKFAYEAVEHGRLGLQARIKAMTIPGTYRQVGFVDVPYAHEDVRVPSDFAKLDTIMHAPCEMTIRRDGTWRLDFEGSSRWGWHTYNAHQVSFTSGIWVMMTQTLIPSEMINDGAAYGTEFRLPKGTWMNPDDRRVAFSYSWHFLVSAWTALWRGLSRSYFGRGYLEEVNAGNANTSNWLQGGGFNQYDEIHAVNSFECAANGTGATAVQDGLSHAAAIWNPEGDMGDMEIWELAEPLVYLGRQIKASSGGSGKYRGGCGFESLRMVWNAKDWTMFFMGNGHISSDWGLMGGYPAASGYRFAAHKTNLKELIASGAEIPLGGDTDPENPTWDAMLPDAQIKRDKQAITTEEMFSDYDLYLNYMRGGPGFGDPLDREPQAVADDINGGYVLERFAGEVYGVVVRKGADGQYGVDEAGTAAARAQIRKDRLAKSVPVSEWMKGEREKILAKDAGTQVRQMFAASFKLGPRFEKDFRTFWSLPDSWTLPEEEIGVPTYGSRYSMDISELPDVHTVQFVEE
notes: acetone carboxylase α subunit (75 kDa), gene acxB (Xaut_3510), X. autotrophicus Py2; amplified from the start to the stop codon; Subunit of the (αβγ)2 heterohexamer; The initial structure was solved from selenomethionine-labelled protein; also called AC α; Xaut_3510; source: E. coli BL21(DE3), co-expressed with the β and γ subunits, purified (His-NTA, desalting)
B1: binds [4].
